Data from ChEMBL document CHEMBL4024712, “Synthesis, stability and mechanistic studies of potent anticryptococcal hexapeptides” (Eur J Med Chem, 2017).
Values after ≈ are worked out from the molar mass of the structure shown. Active and inactive are the calls of the source. The rule behind the calls is not given here. Non-standard residues stand in square brackets, D forms with d. Residues, ends and D or L forms follow the SMILES beside them. Phe(4-Me) = Cc1ccc(C[C@H](N)C(=O)O)cc1; Orn = NCCC[C@H](N)C(=O)O

How the values were obtained:
Vero = experiment: Cytotoxicity against African green monkey Vero cells up to 10 ug/ml after 48 hrs by neutral red dye based assay; assay type: cell-based; details: chlorocebus sabaeus
Nakaseomyces glabratus = experiment: Antifungal activity against Candida glabrata ATCC 90030 after 18 to 24 hrs by Alamar blue assay; assay type: functional
Lipid bilayer [1] = experiment: Binding affinity to EYPC/cholesterol small unilamellar vesicles at 0.1 uM by tryptophan fluorescence quenching assay; assay type: ADME
Pichia kudriavzevii [2] = experiment: Antifungal activity against Candida krusei ATCC 6258 after 18 to 24 hrs by Alamar blue assay; assay type: functional; details: Pichia kudriavzevii, ATCC 6258
Lipid bilayer [3] = experiment: Disruption of EYPC/EYPG small unilamellar vesicles assessed as lysed liposomes at 0.5 ug/ml by phosphotungstic acid staining based transmission electron microscopic method
Aspergillus fumigatus = experiment: Antifungal activity against Aspergillus fumigatus ATCC 90906 after 68 to 72 hrs by Alamar blue assay; assay type: functional
Candida albicans = experiment: Antifungal activity against Candida albicans ATCC 90028 after 18 to 24 hrs by Alamar blue assay; assay type: functional
Escherichia coli [4] = experiment: Anti-bacterial activity against Escherichia coli ATCC 35218 by CLSI method; assay type: functional; details: Escherichia coli, ATCC 35218
Pseudomonas aeruginosa = experiment: Anti-bacterial activity against Pseudomonas aeruginosa ATCC 27853 by CLSI method; assay type: functional; details: Pseudomonas aeruginosa, ATCC 27853; read-out: IC50
Pichia kudriavzevii [5] = experiment: Fungicidal activity against Candida krusei ATCC 6258 after 18 to 24 hrs by Alamar blue assay; assay type: functional
Staphylococcus aureus [6] = experiment: Anti-bacterial activity against methicillin-resistant Staphylococcus aureus ATCC 33591 by CLSI method; assay type: functional; details: Staphylococcus aureus, ATCC 33591; read-out: IC50
Cryptococcus neoformans [7] = experiment: Fungicidal activity against Cryptococcus neoformans ATCC 90113 after 68 to 72 hrs by Alamar blue assay; assay type: functional
Lipid bilayer [8] = experiment: Disruption of EYPC/cholesterol small unilamellar vesicles at 0.5 ug/ml by phosphotungstic acid staining based transmission electron microscopic method; assay type: ADME
Staphylococcus aureus [9] = experiment: Anti-bacterial activity against Staphylococcus aureus ATCC 29213 by CLSI method; assay type: functional; details: Staphylococcus aureus, ATCC 29213; read-out: IC50
[10] = system: Mycobacterium intracellulare; experiment: Anti-bacterial activity against Mycobacterium intracellulare ATCC 23068 after 68 to 72 hrs by Alamar blue assay; assay type: functional, cell-based
Cryptococcus neoformans [11] = experiment: Induction of cell lysis in Cryptococcus neoformans ATCC 90113 biofilm assessed as formation of holes at MIC after 1 hr by osmium tetroxide staining based scanning electron microscopic method; assay type: functional
Lipid bilayer [12] = experiment: Disruption of EYPC/EYPG small unilamellar vesicles assessed as disfigured liposomes at 0.5 ug/ml by phosphotungstic acid staining based transmission electron microscopic method
Cryptococcus neoformans [13] = experiment: Antifungal activity against Cryptococcus neoformans ATCC 90113 after 68 to 72 hrs by Alamar blue assay; assay type: functional
[14] = Proteolytic stability assessed as trypsin (unknown origin)-mediated compound hydrolysis at compound to trypsin ratio of 0.5 to […] measured after 24 hrs by RP-HPLC method; assay type: ADME; details: human
Lipid bilayer [15] = experiment: Binding affinity to EYPC/EYPG small unilamellar vesicles at 0.1 uM by tryptophan fluorescence quenching assay
Cryptococcus neoformans [16] = experiment: Induction of cell lysis in Cryptococcus neoformans ATCC 90113 biofilm assessed as formation of pits at MIC after 1 hr by photungstic acid/ammonium molybdate/uranyl acetatebased scanning based transmission electron microscopic method; assay type: functional
Escherichia coli [17] = experiment: Bactericidal activity against Escherichia coli ATCC 35218 by CLSI method; assay type: functional
[18] = Selectivity index ratio of cytotoxic concentration against African green monkey Vero cells to IC50 for Cryptococcus neoformans ATCC 90113; assay type: toxicity; details: read-out: Selectivity Index

Cc1ccc(C[C@H](NC(=O)[C@@H](Cc2ccccc2)NC(=O)[C@@H](Cc2c[nH]c3ccccc23)NC(=O)[C@@H](N)CCCN)C(=O)N[C@H](Cc2ccccc2)C(=O)N[C@H](CCCCN)C(N)=O)cc1 (H-[Orn][dW][dF][Phe(4-Me)][dF][dK]-NH2)
Activity (Vero): Non-Toxic
IC50 (Nakaseomyces glabratus): Not Active
Activity (Lipid bilayer [1]): Non-Toxic
MIC (Pichia kudriavzevii [2]): 20 µg/mL (≈ 22.2 µM)
IC50 (Pichia kudriavzevii [2]; read-out: IC50): 12.1 µg/mL (≈ 13.4 µM)
Activity (Lipid bilayer [3]): Active
IC50 (Aspergillus fumigatus): Not Active
IC50 (Candida albicans): Not Active
MIC (Escherichia coli [4]): 20 µg/mL (≈ 22.2 µM)
IC50 (Escherichia coli [4]; read-out: IC50): 8.2 µg/mL (≈ 9.1 µM)
IC50 (Pseudomonas aeruginosa): 20 µg/mL (≈ 22.2 µM)
MFC (Pichia kudriavzevii [5]): 20 µg/mL (≈ 22.2 µM)
IC50 (Staphylococcus aureus [6]): > 20 µg/mL
MFC (Cryptococcus neoformans [7]): 0.63 µg/mL (≈ 0.699 µM)
Activity (Lipid bilayer [8]): Non-Toxic
IC50 (Staphylococcus aureus [9]): > 20 µg/mL
IC50 [10]: Not Active
Activity (Cryptococcus neoformans [11]): Active
Activity (Lipid bilayer [12]): Active
IC50 (Cryptococcus neoformans [13]): 0.4 µg/mL (≈ 0.444 µM)
MIC (Cryptococcus neoformans [13]): 0.63 µg/mL (≈ 0.699 µM)
Stability [14]: Stable
Activity (Lipid bilayer [15]): Active
Activity (Cryptococcus neoformans [16]): Active
MBC (Escherichia coli [17]): 20 µg/mL (≈ 22.2 µM)
selectivity ratio [18]: 21 to 25
